Experimental data from patent US6479487B1, “6, 9-disubstituted 2-[trans-(4-aminocyclohexyl)amino] purines” (Aventis Pharmaceuticals Inc., priority 1998, dated 2002).
“And” between values parts separate entries of the source, which are not always exact repeats. Equal values may be shown once. Where a name gives a salt, the structure may show the parent alone. Read-outs that look alike come from different tables or passages of the source.

Legend:
cdk4/cyclin D1 = molecular target: T1, cdk4/cyclin D1 (Homo sapiens, UniProt P11802); experiment: Cyclin-dependent Kinase 4 Assay (cdk4/cyclin D1, GST-Rb substrate); type: biochemical; conditions: cdk4/cyclin D1 insect cell lysate, 10 μM ATP, 30 min at 37° C., several values = separate determinations, read-out: CDK4 Inhibition IC50
T1 construct: made in house; host or cells: Sf9 insect cells (Bac-to-Bac baculovirus, pFastBac)
How it was run: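 Insect-cell lysate of coexpressed cdk4/cyclin D1 (0.1 μg) acts on GST-Rb (0.5 μg) bound to glutathione-Sepharose, in 50 mM HEPES pH 7.5, 10 mM MgCl2, 1 mM EGTA. Reaction runs 30 min at 37 °C, then is stopped by filtration and TNEN washes. Rb phosphorylation read by scintillation counting; IC50 derived.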

cdk2/cyclin E = molecular target: T2, cdk2/cyclin E (Homo sapiens, UniProt P24941); experiment: Cyclin-Dependent Kinase 2 Assay (cdk2/cyclin E, GST-Rb substrate); type: biochemical; conditions: recombinant cdk2/cyclin E, 10 μM ATP, 30 min at 30° C., several values in a cell = separate determinations, read-out: CDK-2 Inhibition IC50
T2 construct: made in house; host or cells: insect cells (baculovirus co-infection)
Description: Substrate: GST-Rb as described above for cdk4/cyclin D1
Assay conditions for cdk2/cyclin E were identical to those for cdk4/cyclin D1 including the substrate. The concentration of recombinant cdk2/cyclin E in the assay was 0.1 μg per 100 μl assay. Incubation was for 30 min at 30° C.

DU145 = experiment: In vitro tumor cell proliferation, DU145; type: cell-based, human; conditions: many values given with an undefined *, read-out: In vitro Tumor Cell Proliferation (IC50, μM) Prostate DU145
How it was run: (§1)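 Tumor cells were seeded overnight at 37° C, then exposed to drug diluted in culture medium for 3 days, refed with fresh drug-containing medium and kept 4 more days. Cells were fixed with 10% trichloroacetic acid and stained with 0.4% sulforhodamine B; alternatively, CyQUANT read proliferation after 3 days' drug exposure.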

A549 = experiment: In vitro tumor cell proliferation, A549; type: cell-based, human; conditions: many values given with an undefined *, read-out: In vitro Tumor Cell Proliferation (IC50, μM) Lung A549
How it was run: as §1

PC-3 = experiment: In vitro tumor cell proliferation, PC-3; type: cell-based, human; conditions: many values given with an undefined *, read-out: In vitro Tumor Cell Proliferation (IC50, μM) Prostate PC-3
How it was run: as §1

Colo-205 = experiment: In vitro tumor cell proliferation, Colo-205; type: cell-based; conditions: values given with an undefined *, read-out: In vitro Tumor Cell Proliferation (IC50, μM) Colon Colo-205
How it was run: as §1

MDA-MB-231 = experiment: In vitro tumor cell proliferation, MDA-MB-231; type: cell-based, human; conditions: sulforhodamine B or CyQUANT assay, many values given with an undefined *, read-out: In vitro Tumor Cell Proliferation (IC50, μM) Breast MDA-MB-231
How it was run: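 Cells plated overnight at 37 °C, then exposed to drug for 3 days, refed with fresh drug and incubated 4 more days. Read-out by sulforhodamine B staining after TCA fixation; alternatively, CyQUANT after 3-day drug exposure and freezing at −80 °C.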

MDA-MB-435 = experiment: In vitro tumor cell proliferation, MDA-MB-435; type: cell-based; conditions: values given with an undefined *, read-out: In vitro Tumor Cell Proliferation (IC50, μM) Breast MDA-MB-435
How it was run: as §1

HT-29 = experiment: In vitro tumor cell proliferation, HT-29; type: cell-based, human; conditions: many values given with an undefined *, read-out: In vitro Tumor Cell Proliferation (IC50, μM) Colon HT-29
How it was run: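 HT-29 cells seeded overnight at 37° C, then exposed to drug for 3 days, refed with fresh drug-containing medium for 4 more days. Proliferation read by sulforhodamine B staining after TCA fixation; alternatively by CyQUANT after freezing plates at −80° C following 3 days' drug exposure.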

DMS-114 = experiment: In vitro tumor cell proliferation, DMS-114; type: cell-based, human; conditions: many values given with an undefined *, read-out: In vitro Tumor Cell Proliferation (IC50, μM) Lung DMS-114
How it was run: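 Human small cell lung carcinoma DMS-114 cells plated overnight, then drug-treated for 3 days, medium and drug renewed, and incubated 4 more days. Growth read by sulforhodamine B staining after TCA fixation; alternatively by CyQUANT after 3 days' drug exposure and freezing at −80 °C.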

[1] = Homo sapiens, COLO 205, Colo-205
[2] = Homo sapiens, MDA-MB-231, MDA-MB-231
[3] = Homo sapiens, MDA-MB-435, MDA-MB-435

T1 sequence (P11802 whole entry): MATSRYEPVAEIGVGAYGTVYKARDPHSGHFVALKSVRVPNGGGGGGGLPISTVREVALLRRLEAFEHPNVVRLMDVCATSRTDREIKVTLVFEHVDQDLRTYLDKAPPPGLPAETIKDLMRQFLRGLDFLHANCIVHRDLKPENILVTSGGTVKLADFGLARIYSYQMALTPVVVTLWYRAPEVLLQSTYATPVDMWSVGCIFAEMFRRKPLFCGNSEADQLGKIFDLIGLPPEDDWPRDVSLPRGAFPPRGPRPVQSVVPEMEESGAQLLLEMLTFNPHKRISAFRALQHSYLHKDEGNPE
T1 sequence (P24385 whole entry partner): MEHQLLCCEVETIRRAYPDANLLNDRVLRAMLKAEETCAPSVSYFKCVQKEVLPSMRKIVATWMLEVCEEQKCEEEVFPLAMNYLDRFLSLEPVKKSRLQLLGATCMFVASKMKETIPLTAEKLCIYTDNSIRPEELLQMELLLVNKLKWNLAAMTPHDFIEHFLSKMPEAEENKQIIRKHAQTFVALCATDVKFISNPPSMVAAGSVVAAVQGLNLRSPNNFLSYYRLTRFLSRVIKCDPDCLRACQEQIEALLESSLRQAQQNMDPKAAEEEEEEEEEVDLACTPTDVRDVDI

| Compound | IC50 (cdk4/cyclin D1) | IC50 (cdk2/cyclin E) | IC50 (DU145; DU145, trihydrochloride) | IC50 (DU145; Homo sapiens, DU-145, DU145) | IC50 (A549; A549, trihydrochloride) | IC50 (A549; Homo sapiens, A549, A549) | IC50 (PC-3; Homo sapiens, PC-3, PC-3) | IC50 (PC-3; PC-3, trihydrochloride) | IC50 (Colo-205; Colo-205, trihydrochloride) | IC50 (Colo-205; [1]) | IC50 (MDA-MB-231; [2]) | IC50 (MDA-MB-231; MDA-MB-231, trihydrochloride) | IC50 (MDA-MB-435; [3]) | IC50 (MDA-MB-435; MDA-MB-435, trihydrochloride) | IC50 (HT-29; HT-29, trihydrochloride) | IC50 (HT-29; Homo sapiens, HT-29, HT-29) | IC50 (DMS-114; DMS-114, trihydrochloride) | IC50 (DMS-114; Homo sapiens, DMS-114, DMS-114) | IC50 (DU145; DU145, dihydrochloride) | IC50 (A549; A549, dihydrochloride) | further results |
| --- | --- | --- | --- | --- | --- | --- | --- | --- | --- | --- | --- | --- | --- | --- | --- | --- | --- | --- | --- | --- | --- |
| N[C@H]1CC[C@H](Nc2nc(NNc3ccccc3F)c3ncn(C4CCCC4)c3n2)CC1 [Example 11, 2-[Trans-(4-aminocyclohexyl)amino]-6-[2-fluorophenylhydrazino]-9-cyclopentylpurine dihydrochloride] | 8900 nM and 5800 nM | 100 nM | – | 4.6 µM | – | 4.5 µM | 3.6 µM | – | – | 6.5 µM | 5 µM | – | – | – | – | 6.5 µM | – | 6.8 µM | 4.7 µM | 3.4 µM | IC50 (Colo-205; Colo-205, dihydrochloride): 5.2 µM; IC50 (MDA-MB-231; MDA-MB-231, dihydrochloride): 6.7 µM; IC50 (MDA-MB-435; MDA-MB-435, dihydrochloride): 10 µM; IC50 (HT-29; HT-29, dihydrochloride): 7.8 µM; IC50 (DMS-114; DMS-114, dihydrochloride): 4.9 µM |
| CCCCCc1ccc(Nc2nc(N[C@H]3CC[C@H](N)CC3)nc3c2ncn3C2CCCC2)cc1 [Example 23, 2-[Trans-(4-aminocyclohexyl)amino]-6-[(4-pentyl)phenylamino]-9-cyclopentylpurine dihydrochloride] | 4000 nM | 2000 nM and 950 nM and 760 nM | – | 3.1 µM | – | 2.3 µM | 3.1 µM | – | – | 2.9 µM | 2.7 µM | – | 3.1 µM | – | – | 2.5 µM | – | 2.6 µM | 3.2 µM and 3 µM | 2.5 µM | IC50 (PC-3; PC-3, dihydrochloride): 2.7 µM and 2.5 µM and 2.2 µM; IC50 (Colo-205; Colo-205, dihydrochloride): 2.8 µM and 2.7 µM; IC50 (MDA-MB-231; MDA-MB-231, dihydrochloride): 2.6 µM and 2.5 µM; IC50 (MDA-MB-435; MDA-MB-435, dihydrochloride): 3.5 µM and 3 µM and 3.3 µM; IC50 (HT-29; HT-29, dihydrochloride): 2.4 µM and 2.3 µM; IC50 (DMS-114; DMS-114, dihydrochloride): 2.1 µM |
| N[C@H]1CC[C@H](Nc2nc(NC3CCN(Cc4c(F)cccc4F)CC3)c3ncn(C4CCCC4)c3n2)CC1 [Example 147-v, 2-[Trans-(4-aminocyclohexyl)amino]-6-[4-[1-(2,6-difluorobenzyl)]piperidinylamino]-9-cyclopentylpurine trihydrochloride] | 2000 nM and 3400 nM | 240 nM | 0.57 µM | 0.52 µM | 0.63 µM | 0.5 µM | 0.85 µM | 1.1 µM | 0.77 µM | 0.58 µM | 0.63 µM | 1.2 µM | 1 µM | 1.3 µM | 0.83 µM | 0.76 µM | 1.1 µM | 1.9 µM | – | – | – |
| CCCCCCCCCCCCNc1nc(N[C@H]2CC[C@H](N)CC2)nc2c1ncn2C1CCCC1 [Example 36, 2-[Trans-(4-aminocyclohexyl)amino]-6-(dodecylamino)-9-cyclopentylpurine dihydrochloride] | 4500 nM | 520 nM | – | 5.4 µM | – | 5.6 µM | 3.1 µM | – | – | 3.1 µM | 3.2 µM | – | 4.2 µM | – | – | 4 µM | – | 3.6 µM | 3.4 µM | 3.1 µM | IC50 (PC-3; PC-3, dihydrochloride): 3.8 µM; IC50 (MDA-MB-435; MDA-MB-435, dihydrochloride): 2.2 µM; IC50 (DMS-114; DMS-114, dihydrochloride): 3.1 µM |

The next compounds have a lower IC50 (DU145; Homo sapiens, DU-145, DU145) than those just listed; values first:

| IC50 (cdk4/cyclin D1) | IC50 (cdk2/cyclin E) | IC50 (DU145; DU145, trihydrochloride) | IC50 (DU145; Homo sapiens, DU-145, DU145) | IC50 (A549; A549, trihydrochloride) | IC50 (A549; Homo sapiens, A549, A549) | IC50 (PC-3; Homo sapiens, PC-3, PC-3) | IC50 (PC-3; PC-3, trihydrochloride) | IC50 (Colo-205; Colo-205, trihydrochloride) | IC50 (Colo-205; [1]) | IC50 (MDA-MB-231; [2]) | IC50 (MDA-MB-231; MDA-MB-231, trihydrochloride) | IC50 (MDA-MB-435; [3]) | IC50 (MDA-MB-435; MDA-MB-435, trihydrochloride) | IC50 (HT-29; HT-29, trihydrochloride) | IC50 (HT-29; Homo sapiens, HT-29, HT-29) | IC50 (DMS-114; DMS-114, trihydrochloride) | IC50 (DMS-114; Homo sapiens, DMS-114, DMS-114) | IC50 (DU145; DU145, dihydrochloride) | IC50 (A549; A549, dihydrochloride) | Compound | further results |
| --- | --- | --- | --- | --- | --- | --- | --- | --- | --- | --- | --- | --- | --- | --- | --- | --- | --- | --- | --- | --- | --- |
| 370 nM | 65 nM and 77 nM | 0.35 µM | 0.32 µM | 0.22 µM | 0.17 µM | 0.25 µM | 0.5 µM | 0.17 µM | 0.18 µM | 0.32 µM | 0.33 µM | 0.42 µM | 0.56 µM | 0.35 µM | 0.34 µM | 0.32 µM | 0.29 µM | – | – | N[C@H]1CC[C@H](Nc2nc(NC3CCN(Cc4cccc(C(F)(F)F)c4)CC3)c3ncn(C4CCCC4)c3n2)CC1 [Example 147-m, 2-[Trans-(4-aminocyclohexyl)amino]-6-[4-[1-(3-trifluoromethylbenzyl)]piperidinylamino]-cyclopentylpurine trihydrochloride] | – |
| 3500 nM and 2000 nM | 330 nM and 290 nM | 0.25 µM | 0.22 µM | 0.14 µM | 0.19 µM | 0.21 µM | 0.39 µM | 0.13 µM | 0.18 µM | 0.29 µM | – | 0.3 µM | 0.41 µM | 0.29 µM | – | 0.26 µM | 0.32 µM | – | – | N[C@H]1CC[C@H](Nc2nc(NC3CCN(Cc4cc(F)cc(F)c4)CC3)c3ncn(C4CCCC4)c3n2)CC1 [Example 147-g, 2-[Trans-(4-aminocyclohexyl)amino]-6-[4-1 1-(3.5-difluorobenzyl)]piperidinylamino]-9-cyclopentylpurine trihydrochloride] | – |
| 670 nM and 600 nM | 560 nM and 270 nM and 450 nM | 0.3 µM | 0.21 µM | 0.24 µM | 0.18 µM | 0.22 µM | 0.33 µM | 0.2 µM | 0.19 µM | 0.23 µM | 0.27 µM | 0.33 µM | 0.34 µM | 0.3 µM | 0.32 µM | 0.32 µM | 0.3 µM | – | – | COc1cc(CN2CCC(Nc3nc(N[C@H]4CC[C@H](N)CC4)nc4c3ncn4C3CCCC3)CC2)cc(OC)c1 [Example 147-c, 2-[Trans-(4-aminocyclohexyl)amino]-6-[4-[1-(3,5-dimethoxybenzyl)]piperidinylamino-9-cyclopentylpurinetrihydrochloride] | – |
| 2900 nM | 200 nM and 170 nM | 0.15 µM | 0.3 µM | 0.16 µM | 0.29 µM | 0.35 µM | 0.34 µM | 0.15 µM | 0.26 µM | – | 0.32 µM | 0.39 µM | – | 0.26 µM | 0.4 µM | 0.29 µM | 0.45 µM | – | – | N[C@H]1CC[C@H](Nc2nc(NC3CCN(Cc4ccccc4F)CC3)c3ncn(C4CCCC4)c3n2)CC1 [Example 147-k, 2-[Trans-(4-aminocyclohexyl)amino]-6-[4-[1-(2-fluorobenzyl)]piperidinylamino]-9-cyclopentylpurine trihydrochloride] | – |
